Results on 18 molecules are retold here after patent publication US20110280831A1, “COMBINATIONS COMPRISING METHOTREXATE AND DHODH INHIBITORS” (priority 2009, published 2011).

One may read the IC50 as the point on the concentration scale where inhibition reaches its midpoint.

“Also recorded” adds a separate entry of the source.

Data set [1] deals with rat adjuvant-induced arthritis model (AIA). Kind of data set: Efficacy assay in rat adjuvant-induced arthritis model (AIA), curative protocol. In kind it is in vivo, Wistar rats. Conditions: arthritic rats, oral once a day for 10 days, compound 20 10 mg/Kg/day, MTX 0.05 mg/Kg/day, AUC days 10-21 versus vehicle, mean and SEM. As to the method:
The effect of DHODH inhibitor compounds were tested in combination with methotrexate (0.05 mg/Kg/day) in the rat adjuvant-induced arthritis model (AIA) in animals with established disease (curative protocol). Briefly, Complete Freund Adjuvant (CFA) was injected into the left hind footpad of Wistar rats, and 10 days later the swelling of the two rear paws was measured with a plethysnnometer. […] Compounds were administered orally once a day for 10 days and paw volumes were determined every two days up to day 21.
The percentage of inhibition for every group was calculated versus values from vehicle-treated rats. The table below depicts the mean and SEM of one experiment using 6 animals per group.

Another data set has as its target human DHODH (Homo sapiens, UniProt Q02127). Kind of data set: Inhibition of human DHODH activity assay (DCIP chromogen reduction). In kind it is biochemical. Conditions: enzyme extracts, 10 min at room temperature, absorbance at 600 nm, duplicate; read-out: hDHODH IC50. As to the method: DHODH activity and its inhibition were studied using a chromogen reduction assay with DCIP (2,6-dichlorophenol-indophenol).
Enzyme extracts (8 μl, ˜1.5 μg of human protein) were incubated in 96-well plates. The assay mixture (200 μl) contained 200 μM CoQD, 100 μM L-DHO, 120 μM DCIP in the assay buffer (100 mM HEPES pH 8.0, 150 mM NaCl, 10% Glicerol, 0.05% Triton X-100) and 2 μl of test compound. The compounds were dissolved in DMSO at a stock concentration of 1 mM, and tested at different concentrations varying from 10 μM to 1 pM to calculate an IC50 (concentration of inhibitor required for 50% of inhibition).
The reaction was initiated by adding the enzyme and then incubated for 10 min at room temperature before measuring DCIP reduction by counting a decrease in absorbance at 600 nm using standard instrumentation (Spectramax).
All reactions were carried out in duplicate and graphs, determining IC50 values for each compound, were plotted using the ABase software.

A further data set has as its system Swiss mice. Kind of data set: Acute hepatotoxicity assay, plasma liver markers. To be noted: for ALT plasma level / AST plasma level / BIL (total bilirubin) plasma level: Swiss mice, single 100 mg/kg intraperitoneal, 24 hours later. In kind it is in vivo. The procedure:
Acute hepatotoxicity assays were performed in Swiss mice. Animals received a single administration of either vehicle, or 100 mg/kg of teriflunomide or a compound of the present invention (compounds from the list indicated previously) by intraperitoneal route. Twenty-four hours later, animals were sacrificed and the levels of liver markers AST (aspartate aminotransferase), ALT (alanine aminotransferase) and BIL (total bilirubin) in plasma were determined.

Chain of human DHODH (Q02127 whole entry): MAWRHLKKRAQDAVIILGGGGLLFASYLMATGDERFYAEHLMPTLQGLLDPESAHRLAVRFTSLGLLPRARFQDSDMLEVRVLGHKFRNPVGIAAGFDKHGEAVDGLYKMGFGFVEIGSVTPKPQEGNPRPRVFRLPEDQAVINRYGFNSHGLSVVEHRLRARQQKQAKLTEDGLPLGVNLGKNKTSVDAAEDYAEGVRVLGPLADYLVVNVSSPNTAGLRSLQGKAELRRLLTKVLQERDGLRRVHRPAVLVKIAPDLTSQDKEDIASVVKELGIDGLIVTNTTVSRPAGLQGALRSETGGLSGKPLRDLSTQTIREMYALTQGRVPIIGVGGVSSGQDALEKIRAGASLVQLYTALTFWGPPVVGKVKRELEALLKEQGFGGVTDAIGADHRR

Regarding `CN(Cc1cnc2nc(N)nc(N)c2n1)c1ccc(C(=O)N[C@@H](CCC(=O)O)C(=O)O)cc1` [MTX, Methotrexate], in data set [1], the “% inhibition of the inflammation (AUC) Right paw” value was found to be 33 ± 9%.

With `Cc1ccc(Nc2cnc(-c3ccccc3Cl)c(C)c2)c(C(=O)O)c1` [Compound 71, 2-(6-(2-Chlorophenyl)-5-methylpyridin-3-ylamino)-5-methylbenzoic acid], the IC50 on human DHODH came to 14 nM. Further, in the data set on Swiss mice, the ALT plasma level turned out to be 72 IU/I, the AST plasma level is on record as 95 IU/I and the “BIL (total bilirubin) plasma level” value is 0.05 mg/dL.

Consider `C/C(O)=C(\C#N)C(=O)Nc1ccc(C(F)(F)F)cc1` [Teriflunomide, reference compound], for which, in the data set with Swiss mice, the ALT plasma level is recorded as 440 IU/I, the AST plasma level is 655 IU/I and the “BIL (total bilirubin) plasma level” value was 0.46 mg/dL. Besides, in the data set with Swiss mice (mice, intraperitoneal route, 100 mg/kg), the “change in plasma liver markers (AST, ALT, BIL) compared to vehicle-treated mice, in words” value is recorded as “dramatic increase; also recorded: drastic increase”.

In the case of `Cc1ccc(Nc2ccc(-c3c(F)cccc3F)nc2)c(C(=O)O)c1` [Compound 119, 2-(6-(2,6-Difluorophenyl)pyridin-3-ylamino)-5-methylbenzoic acid], the IC50 on human DHODH was determined as 19 nM. In the data set on Swiss mice, the ALT plasma level worked out at 69 IU/I, the AST plasma level is given as 96 IU/I and the “BIL (total bilirubin) plasma level” value was 0.08 mg/dL.

Regarding `Cc1ccc(Nc2cnc(-c3ccccc3)c(C)c2)c(C(=O)O)c1` [Compound 60, 5-Methyl-2-(5-methyl-6-phenylpyridin-3-ylamino)benzoic acid], the IC50 on human DHODH turned out to be 53 nM. In the data set with Swiss mice, the ALT plasma level is 70 IU/I, the AST plasma level was determined as 131 IU/I and the “BIL (total bilirubin) plasma level” value worked out at 0.09 mg/dL.

For `O=C(O)c1cc(C2CC2)ccc1Nc1cnc(-c2c(F)cccc2F)nc1` [Compound 20, 5-cyclopropyl-2-(2-(2,6-difluorophenyl)pyrimidin-5-ylamino)benzoic acid], the half-maximal inhibitory concentration (IC50) on human DHODH worked out at 14 nM. Further, in the data set with Swiss mice, the ALT plasma level came out at 45 IU/I, the AST plasma level is given as 98 IU/I and the “BIL (total bilirubin) plasma level” value turned out to be 0.07 mg/dL. The “% inhibition of the inflammation (AUC) Right paw” value in data set [1] amounted to 32 ± 8%.

With `O=C(O)c1cc(C2CC2)ccc1Nc1cnc(-c2ccccc2F)nc1` [Compound 127, 5-Cyclopropyl-2-(2-(2-fluorophenyl)pyrimidin-5-ylamino)benzoic acid], on human DHODH, the IC50 is 10 nM. Further, in the data set with Swiss mice, the ALT plasma level is recorded as 56 IU/I, the AST plasma level was found to be 72 IU/I and the “BIL (total bilirubin) plasma level” value worked out at 0.07 mg/dL.

Regarding `Cc1ccc(Nc2cnc(-c3ccccc3Cl)nc2)c(C(=O)O)c1` [Compound 123, 2-(2-(2-Chlorophenyl)pyrimidin-5-ylamino)-5-methylbenzoic acid], at human DHODH, the IC50 turned out to be 57 nM. Besides, in the data set with Swiss mice, the ALT plasma level worked out at 89 IU/I, the AST plasma level is on record as 113 IU/I and the “BIL (total bilirubin) plasma level” value was 0.06 mg/dL.

With `Cc1ccc(Nc2cnc(-c3cccc(C(=O)N4CCCC4)c3)c(C)c2)c(C(=O)O)c1` [Compound 125, 5-Methyl-2-(5-methyl-6-(3-(pyrrolidine-1-carbonyl)phenyl)pyridin-3-ylamino)benzoic acid], the half-maximal inhibitory concentration (IC50) at human DHODH amounted to 9 nM.

Turning to `Cc1ccc(Nc2cnc(-c3cccc(C(N)=O)c3)c(C)c2)c(C(=O)O)c1` [Compound 73, 2-(6-(3-Carbamoylphenyl)-5-methylpyridin-3-ylamino)-5-methylbenzoic acid], the 50% inhibitory concentration (IC50) on human DHODH was determined as 190 nM.

As for `Cc1ccc(Nc2cnc(-c3ccccc3C(F)(F)F)c(C)c2)c(C(=O)O)c1` [Compound 93, 5-Methyl-2-(5-methyl-6-(2-(trifluoromethyl)phenyl)pyridin-3-ylamino)benzoic acid], the IC50 on human DHODH stood at 20 nM.

On to `Cc1ccc(Nc2ccc(-c3ccccc3Cl)nc2)c(C(=O)O)c1` [Compound 85, 2-(6-(2-Chlorophenyl)pyridin-3-ylamino)-5-methylbenzoic acid], for which, on human DHODH, the IC50 turned out to be 32 nM. Besides, in the data set with Swiss mice, the ALT plasma level was 43 IU/I, the AST plasma level is listed as 83 IU/I and the “BIL (total bilirubin) plasma level” value amounted to 0.13 mg/dL.

`Cc1ccc(Nc2ccc(-c3cc(OC(C)C)ccc3F)nc2)c(C(=O)O)c1` [Compound 66, 2-(6-(2-Fluoro-5-isopropoxyphenyl)pyridin-3-ylamino)-5-methylbenzoic acid]: the IC50 on human DHODH came to 28 nM.

For `O=C(O)c1cc(C2CC2)ccc1Nc1cnc(-c2ccccc2Cl)nc1` [Compound 121, 2-(2-(2-Chlorophenyl)pyrimidin-5-ylamino)-5-cyclopropylbenzoic acid], the half-maximal inhibitory concentration (IC50) on human DHODH stood at 3 nM. Moreover, in the data set on Swiss mice, the ALT plasma level stood at 75 IU/I, the AST plasma level turned out to be 105 IU/I and the “BIL (total bilirubin) plasma level” value worked out at 0.05 mg/dL.

As for `Cc1ccc(Nc2cnc(-c3cccc(Cl)c3)c(C)c2)c(C(=O)O)c1` [Compound 95, 2-(6-(3-Chlorophenyl)-5-methylpyridin-3-ylamino)-5-methylbenzoic acid], on human DHODH, the concentration for half-maximal inhibition (IC50) was determined as 10 nM.

Take `Cc1ccc(Nc2cnc(-c3ccccc3F)c(C)c2)c(C(=O)O)c1` [Compound 97, 2-(6-(2-Fluorophenyl)-5-methylpyridin-3-ylamino)-5-methylbenzoic acid]: the IC50 on human DHODH is 5 nM. In addition, in the data set with Swiss mice, the ALT plasma level is 55 IU/I, the AST plasma level came to 92 IU/I and the “BIL (total bilirubin) plasma level” value stood at 0.11 mg/dL.

As to `Cc1ccc(Nc2cnc(-c3ccccc3)c(F)c2)c(C(=O)O)c1` [Compound 8, 2-(5-Fluoro-6-phenylpyridin-3-ylamino)-5-methylbenzoic acid], the IC50 at human DHODH was 18 nM.

As for `Cc1cc(Nc2ccc(C3CC3)cc2C(=O)O)cnc1-c1ccccc1` [Compound 91, 5-Cyclopropyl-2-(5-methyl-6-phenylpyridin-3-ylamino)benzoic acid], the IC50 at human DHODH came out at 6 nM.
